# Experiments:
# [1] = target: T1, Myzus persicae resistance associated esterase, FE4 (Myzus persicae, UniProt P35502); assay: Inhibition of resistance associated esterase FE4, 4-nitrophenyl acetate substrate; format: biochemical; conditions: for inhibition activity compared with PBO: FE4, statement in text; for remaining activity at 10000 µM (stock): purified FE4, 2.5 μL of 10 mM in acetone, 10 min incubation, 4-nitrophenyl acetate 0.8 mM, read-out: Myzus persicae esterases - percentage of the activity remaining FE4
# T1 construct: would be utilized for the purified esterases from aphids; from tissue; host or cells: aphids (Myzus persicae)
# T1 sequence (P35502 24-564): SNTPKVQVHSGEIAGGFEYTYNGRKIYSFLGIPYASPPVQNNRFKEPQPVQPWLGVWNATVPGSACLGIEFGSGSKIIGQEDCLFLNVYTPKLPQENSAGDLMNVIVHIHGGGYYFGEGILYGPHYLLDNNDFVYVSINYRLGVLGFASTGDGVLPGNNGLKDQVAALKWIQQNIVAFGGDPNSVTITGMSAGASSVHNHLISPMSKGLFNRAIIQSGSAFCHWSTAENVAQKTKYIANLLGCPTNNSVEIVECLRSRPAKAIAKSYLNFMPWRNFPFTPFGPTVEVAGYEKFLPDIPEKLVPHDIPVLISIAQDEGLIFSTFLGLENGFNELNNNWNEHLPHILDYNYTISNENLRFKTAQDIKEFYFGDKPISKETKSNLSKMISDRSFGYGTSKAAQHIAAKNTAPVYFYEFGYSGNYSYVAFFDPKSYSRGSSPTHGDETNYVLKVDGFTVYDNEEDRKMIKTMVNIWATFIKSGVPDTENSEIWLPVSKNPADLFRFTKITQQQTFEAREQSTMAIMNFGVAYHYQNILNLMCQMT
# Experimental: It was envisaged, therefore, that the ‘esterase interference assay’ (Khot et al., 2008) would be utilized for the purified esterases from aphids. Various esterase substrates were assessed to find one suitable of monitoring inhibition in an insect homogenate. The Myzus persicae resistance associated esterase, FE4, was used.
# Initially the esterase interference assay was carried out, as being the ‘absolute’ protocol for characterising interactions between the compounds of Example 1 and Example 2 and FE4. However, since this is a protracted method, and it would not be applicable for the B. tabaci esterases, a selection of products already reported in the literature were used to compare the interference assay and the use of a model substrate.
# From the literature (Philippou et al., 2013) it is known that 1-naphthyl acetate is not suitable for this assay. Instead, 4-nitrophenyl acetate was used. A 10 mM pNA stock was prepared in acetone and added to 0.02 M phosphate buffer pH 7.0 (final concentration 2 mM). The comparison was made with 6 analogues of variable efficacy.
# For the assay 10 μL of purified FE4 was diluted to a total volume of 50 μL by the addition of 0.02 M phosphate buffer, pH 7.0 in individual wells of a microplate (maxisorb, NUNC). To each well, 2.5 μL of 10 mM of the compound of Example 1 and of Example 2 in acetone was added and incubated for 10 mins, with acetone only used as a control. Following incubation, 100 μL of 0.02 phosphate buffer, pH 7.0 and 100 μL of 2 mM 4-nitrophenyl acetate was added (final volume in well 250 μL, final substrate concentration 0.8 mM). Enzyme activity was read at 405 nm in a Spectramax Tmax for 5 min, with readings taken every 5 s. The rate (mOD min^−1) was calculated by the integrated software, Softmax Pro v.5.4. A PBO solution (10 mM) was prepared in the same way as a comparison.
# [2] = test system: Myzus persicae clone highly resistant to insecticide; assay: Contact test on treated plant (pea seedling dip), synergist with neonicotinoid; format: in vivo; conditions: for Efficacy of the tested compounds: synergist 1 g/L, mortality assessed at 48 hours, Abbott's formula
# Experimental: Laboratory bred Myzus persicae clone highly resistant to insecticide, derived from a field collected population after control failure, mixed age apterous parthenogenetic females adults, were assayed for the test.
# Four (4) different commercially available formulated insecticides were used and diluted as follow: • imidacloprid: 1000 mL of test solution was prepared diluting in water 20 μL of commercial formulation, containing 200 g/L of a.i., equivalent to 0.004 g of imidacloprid per liter of insecticidal solution; • thiacloprid: 1000 mL of test solution was prepared diluting in water 24 μL of commercial formulation containing 480 g/L of a.i, equivalent to 0.012 g of thiacloprid per liter of insecticidal solution;
# The compounds of Example 1 and Example 2 were formulated in the form of emulsified concentrate (EC).
# The following amount of the EC formulations were added to the above described insecticidal solution of insecticide to have a final concentration of synergist equal to 1 g/L:
# 20 mL of test formulations were used to wet by dipping for 5″ a small pea seedling (1-1.5 cm long). Seedlings were left at room temperature in a fume hood and allowed to dry for 15″. After drying 10-15 apterous parthenogenetic females were moved to the seedling and allowed to settle. Mortality produced by pyrethroids was assessed 24 hours later. Mortality produced by neonicotinoids was assessed 48 hours later.
# Three replicates were executed each composed by 2 subreplicates (seedlings) and 60-90 specimens were used per test formulation.
# In parallel with the test, the mortality of aphids in an untreated control replicate (seedlings dipped in water) was determined using the same conditions and methods.
# The efficacy was calculated according the Abbott's formula: […]
# [3] = Imidacloprid (0.004 g per liter)
# [4] = thiacloprid (0.012 g per liter)
SMILES,inhibition activity compared with PBO [1],remaining activity at 10000 µM (stock) [1] [%],efficacy in combination with imidacloprid and thiacloprid [2],"Efficacy of the tested compounds [2, 3]","Efficacy of the tested compounds [2, 4]"
"C#CCOCc1cc2c(cc1CCCC)OCO2 [Compound of Example 2, 5-n-butyl-6-((prop-2-ynyloxy)methyl)benzo[d][1,3]dioxole]",better than PBO,28.7,very good efficacy,−20.3,−20.3
"C#CCOCc1cc2c(cc1CCCCCC)OCO2 [Compound of Example 1, 5-n-hexyl-6-((prop-2-ynyloxy)methyl)benzo[d][1,3]dioxole]",better than PBO,23.1,very good efficacy,23.8,23.8

# Source: patent publication US10537100B2, “Substituted methylenedioxybenzyl compounds and their use as synergists” (Endura SPA, priority 2015, dated 2020)
